Assay results from patent US7169778B2, “Pteridinones as kinase inhibitors” (Warner-Lambert Company, priority 1999, dated 2007).

Assays:
[1] = target: T1, human FGF-1 (flg) receptor tyrosine kinase (Homo sapiens, UniProt P11362); test: FGF receptor tyrosine kinase assay; assay type: biochemical; settings: for inhibition at 5 µM: @ 5 (unit μm), read-out: FGF % @ concentration
T1 construct: amplify a fragment of DNA that codes for the intracellular tyrosine kinase domain; made in house; host or cells: SF9 insect cells (baculovirus)
T1 sequence (P11362 478-767 limits assumed): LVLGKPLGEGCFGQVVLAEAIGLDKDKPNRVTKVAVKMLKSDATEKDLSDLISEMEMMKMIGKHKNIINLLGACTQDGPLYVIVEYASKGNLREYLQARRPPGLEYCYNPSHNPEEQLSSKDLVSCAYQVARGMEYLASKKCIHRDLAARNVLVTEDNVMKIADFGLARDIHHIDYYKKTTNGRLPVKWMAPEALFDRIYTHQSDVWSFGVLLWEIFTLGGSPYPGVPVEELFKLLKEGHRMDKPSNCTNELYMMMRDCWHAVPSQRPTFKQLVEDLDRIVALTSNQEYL
From the text: (§1) Full-length cDNAs for the mouse PDGF-β and human FGF-1 (flg) receptor tyrosine kinases were obtained from J. Escobedo and prepared as described in J. Biol. Chem., 1991;262:1482–1487. PCR primers were designed to amplify a fragment of DNA that codes for the intracellular tyrosine kinase domain. The fragment was inserted into a baculovirus vector, cotransfected with AcMNPV DNA, and the recombinant virus isolated. SF9 insect cells were infected with the virus to overexpress the protein, and the cell lysate was used for the assay. Assays were performed in 96-well plates (100 μL/incubation/well), and conditions were optimized to measure the incorporation of ^32P from γ^32P-ATP into a glutamate-tyrosine co-polymer substrate. Briefly, to each well was added 82.5 μL of incubation buffer containing 25 mM Hepes (pH 7.0), 150 mM NaCl, 0.1% Triton X-100, 0.2 mM PMSF, 0.2 mM Na3VO4, 10 mM MnCl2, and 750 μg/mL of Poly (4:1) glutamate-tyrosine followed by 2.5 μL of inhibitor and 5 μL of enzyme lysate (7.5 μg/μL FGF-TK or 6.0 μg/μL PDGF-TK) to initiate the reaction. Following a 10 minute incubation at 25° C., […] of γ^32P-ATP (0.4 μCi plus 50 μM ATP) was added to each well, and samples were incubated for an additional 10 minutes at 25° C. The reaction was terminated by the addition of 100 μL of 30% TCA containing 20 mM sodium pyrophosphate and precipitation of material onto glass fiber mats (Wallac). Filters were washed three times with 15% TCA containing 100 mM sodium pyrophosphate, and the radioactivity retained on the filters counted in a Wallac 1250 Betaplate reader. Nonspecific activity was defined as radioactivity retained on the filters following incubation of samples with buffer alone (no enzyme). Specific enzymatic activity (enzyme plus buffer) was defined as total activity minus nonspecific activity. The concentration of a compound that inhibited specific activity by 50% (IC50) was determined based on the inhibition curve.

C-src kinase = C-src kinase (Homo sapiens, UniProt P12931); test: C-src kinase assay; assay type: biochemical
Chain of C-src kinase (P12931 whole entry, the tested form may be a part): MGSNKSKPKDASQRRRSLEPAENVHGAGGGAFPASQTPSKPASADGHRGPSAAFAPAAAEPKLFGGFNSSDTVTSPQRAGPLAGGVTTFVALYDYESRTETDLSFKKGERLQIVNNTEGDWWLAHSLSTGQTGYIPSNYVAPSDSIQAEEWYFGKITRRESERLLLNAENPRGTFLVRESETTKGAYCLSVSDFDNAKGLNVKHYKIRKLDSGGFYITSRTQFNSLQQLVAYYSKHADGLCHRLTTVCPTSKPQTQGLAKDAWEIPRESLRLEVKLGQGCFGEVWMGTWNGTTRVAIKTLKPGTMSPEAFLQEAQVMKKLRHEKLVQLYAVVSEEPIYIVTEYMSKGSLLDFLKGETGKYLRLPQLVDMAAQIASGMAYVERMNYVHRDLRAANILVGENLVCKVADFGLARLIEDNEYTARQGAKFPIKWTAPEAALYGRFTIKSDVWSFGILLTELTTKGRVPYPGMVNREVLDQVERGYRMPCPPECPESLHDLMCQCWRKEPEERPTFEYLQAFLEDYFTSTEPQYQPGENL
Description: C-src kinase was purified from baculovirus infected insect cell lysates using an antipeptide monoclonal antibody directed against the N-terminal amino acids (amino acids 2–17) of c-src. The antibody, covalently linked to 0.65 μm latex beads, was added to a suspension of insect cell lysis buffer comprised of 150 mM NaCl, 50 mM Tris pH 7.5, 1 mM DTT, 1% NP-40, 2 mM EGTA, 1 mM sodium vanadate, 1 mM PMSF, 1 μg/mL each of leupeptin, pepstatin, and aprotinin. Insect cell lysate containing c-src protein was incubated with these beads for 3 to 4 hours at 4° C. with rotation. At the end of the lysate incubation, the beads were rinsed three times in lysis buffer, resuspended in lysis buffer containing 10% glycerol, and frozen. These latex beads were thawed, rinsed three times in assay buffer (40 mM Tris, pH 7.5, 5 mM mgCl2) and suspended in the same buffer. In a Millipore 96-well plate with a 0.65 μm polyvinylidine membrane bottom were added the reaction components: 10 μL C-src beads, 10 μL of 2.5 mg/mL poly GluTyr substrate, 5 μM ATP containing 0.2 μCi labeled ^32P-ATP, 5 μL DMSO containing inhibitors or as a solvent control, and buffer to make the final volume 125 μL. The reaction was started at room temperature by addition of the ATP and quenched 10 minutes later by the addition of 125 μL of 30% TCA, 0.1 M sodium pyrophosphate for 5 minutes on ice. The plate was then filtered and the wells washed with two […] aliquots of 15% TCA, 0.1 M pyrophosphate. The filters were then punched, counted in a liquid scintillation counter, and the data examined for inhibitory activity in comparison to a known inhibitor such as erbstatin. The method is also described in J. Med. Chem., 1994;37:598–609.

[2] = target: N-terminal truncated Wee 1 (Homo sapiens, UniProt P30291); test: Wee 1 OY kinase assay; assay type: biochemical; settings: read-out: WEE1OY IC50
Chain of N-terminal truncated Wee 1 (P30291 299-569 limits assumed): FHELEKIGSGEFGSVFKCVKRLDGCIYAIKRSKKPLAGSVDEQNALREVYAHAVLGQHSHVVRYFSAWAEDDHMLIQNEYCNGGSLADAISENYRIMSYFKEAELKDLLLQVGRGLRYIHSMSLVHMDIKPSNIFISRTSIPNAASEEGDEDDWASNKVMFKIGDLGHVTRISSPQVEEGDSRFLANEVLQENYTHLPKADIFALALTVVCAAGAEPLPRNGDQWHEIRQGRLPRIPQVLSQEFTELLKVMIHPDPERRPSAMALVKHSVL
Description: These kinase assays are carried out on 96-well filter plates (Millpore, Cat. MADPN0B50) in 50 μL kinase assay buffer (50 mM Tris, pH 8.0, 10 mM NaCl, 10 mM MgCl2, 10 μM ATP with 0.25 μCi [r-32P]ATP, 1 mM DTT) with 0.1 μg purified N-terminal truncated Wee 1 and 6 μg poly(Orn, Tyr)4:1 (Sigma, P4534). The assay is started by adding ATP and incubating at room temperature for 20 minutes with shaking. The reactions are terminated by adding 50 μL ice-cold 20% TCA (trichloracetic acid) with 0.1 M sodium pyrophosphate and shaking the resultant mixture for 1 minute. The plate is then incubated at 4° C. for 1 hour to allow protein to precipitate. These plates are then washed 5 times with 200 μL ice-cold 10% TCA and with 0.1 M sodium pyrophosphate per wash. Twenty-five microliters scintillation liquid is then added to each well, and the plate is counted in Wallac's MicroBeta counter 1450.

[3] = target: T2, mouse PDGF-β receptor tyrosine kinase (Mus musculus, UniProt P05622); test: PDGF receptor tyrosine kinase assay; assay type: biochemical
T2 construct: amplify a fragment of DNA that codes for the intracellular tyrosine kinase domain; made in house; host or cells: SF9 insect cells (baculovirus)
T2 sequence (P05622 599-961 limits assumed): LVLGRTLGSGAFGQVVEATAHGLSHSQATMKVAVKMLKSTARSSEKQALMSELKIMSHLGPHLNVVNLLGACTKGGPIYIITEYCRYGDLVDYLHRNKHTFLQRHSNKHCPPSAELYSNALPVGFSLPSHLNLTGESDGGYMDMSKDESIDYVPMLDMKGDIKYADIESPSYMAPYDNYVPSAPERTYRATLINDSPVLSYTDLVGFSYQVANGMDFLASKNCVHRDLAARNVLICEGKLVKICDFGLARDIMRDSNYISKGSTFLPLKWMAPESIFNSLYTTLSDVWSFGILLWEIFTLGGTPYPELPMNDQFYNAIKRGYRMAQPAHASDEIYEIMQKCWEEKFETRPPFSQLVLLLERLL
From the text: as §1

| Structure (SMILES) | melting point | IC50 [1] | IC50 (C-src kinase) | IC50 [2] | inhibition at 5 µM [1] | IC50 [3] |
| --- | --- | --- | --- | --- | --- | --- |
| O=c1[nH]c2cnc(Nc3ccc(N4CCOCC4)cc3)nc2n(C2CCCC2)c1=O [Compound 23, 8-Cyclopentyl-2-[[4-(morpholin-4-yl]phenyl]amino]-5H,8H-pteridine-6,7-dione] | 283 to 286 °C |  |  |  |  |  |
| CCN(CC)C(=O)c1ccc(Nc2ncc3nc(-c4c(Cl)cccc4Cl)c(=O)n(C)c3n2)cc1 [Compound 6, 6-(2,6-Dichlorophenyl)-2-[[4-(diethylaminocarbonyl)phenyl]amino]-8-methyl-8H-pteridin-7-one] | 239 to 241 °C | 0.05 µM | 0.29 µM | 0.987 µM |  | 3.13 µM |
| Cn1c(=O)c(-c2c(Cl)cncc2Cl)nc2cnc(Nc3ccc(N4CCOCC4)cc3)nc21 [Compound 12, 6-(3,5-Dichloropyridin-4-yl)-8-methyl-2-[[4-(morpholin-4-yl)phenyl]amino]-8H-pteridin-7-one] | 243 to 245 °C |  | 0.38 µM | 1.01 µM |  | 25.4 µM |
| CCN(CC)C(=O)c1ccc(Nc2ncc3nc(-c4ccccc4)c(=O)n(C)c3n2)cc1 [Compound 5, 2-[[4-(Diethylaminocarbonyl)phenyl]amino]-8-methyl-6-phenyl-8H-pteridin-7-one] | 250 to 252 °C |  | > 50 µM | > 50 µM | 38% | > 50 µM |
| Cn1c(=O)c(-c2c(Br)cncc2Br)nc2cnc(Nc3ccc(N4CCOCC4)cc3)nc21 [Compound 19, 6-(3,5-Dibromopyridin-4-yl)-8-methyl-2-[[4-(morpholin-4-yl)phenyl]amino]-8H-pteridin-7-one] | 204 to 206 °C |  | 1.45 µM | 7.4 µM |  |  |
| Cn1c(=O)c(-c2ccccc2)nc2cnc(Nc3ccc(N4CCOCC4)cc3)nc21 [Compound 1] | 302 to 304.5 °C | > 50 µM | > 50 µM | > 50 µM |  | > 50 µM |
| CCn1c(=O)c(-c2cc(OC)cc(OC)c2)nc2cnc(Nc3ccncc3)nc21 [Compound 15, 6-(3,5-Dimethoxyphenyl)-8-ethyl-2-[(pyridin-4-yl)amino]-8H-pteridin-7-one] | 245 to 246.5 °C |  |  |  |  |  |
| Cn1c(=O)c(-c2c(Cl)cccc2Cl)nc2cnc(Nc3ccc(N4CCOCC4)cc3)nc21 [Compound 2, 6-(2,6-Dichlorophenyl)-8-methyl-2-[[4-(morpholin-4-yl)phenyl]amino]-8H-pteridin-7-one] | 292 to 293 °C | > 50 µM | 0.057 µM | 0.144 µM |  | 7.7 µM |
| CN1CCN(c2ccc(Nc3ncc4[nH]c(=O)c(=O)n(C5CCCC5)c4n3)cc2)CC1 [Compound 24, 8-Cyclopentyl-2-[[4-(4-methylpiperazin-1-yl)phenyl]amino]-5H,8H-pteridine-6,7-dione] | 266 to 270 °C |  | 4.35 µM |  |  |  |

Further lines, results first:

| melting point | IC50 [1] | IC50 (C-src kinase) | IC50 [2] | inhibition at 5 µM [1] | IC50 [3] | Structure (SMILES) |
| --- | --- | --- | --- | --- | --- | --- |
| 154 to 155 °C | 30 µM |  |  |  |  | CCN(CC)CCOc1ccc(Nc2ncc3nc(-c4cc(OC)cc(OC)c4)c(=O)n(CC)c3n2)cc1 [Compound 14, 6-(3,5-Dimethoxyphenyl)-8-ethyl-2-[[4-[2-(diethylamino)ethoxyl]-phenyl]amino]-8H-pteridin-7-one] |
|  | 0.054 µM | 6.8 µM | > 50 µM |  |  | CCN(CC)CCOc1ccc(Nc2ncc3nc(-c4c(Cl)c(OC)nc(OC)c4Cl)c(=O)n(C)c3n2)cc1 [Compound 21, 6-(3,5-Dichloro-2,6-dimethoxypyridin-4-yl)-8-methyl-2-[[4-[2-(diethylamino)ethoxy]phenyl]amino]-8H-pteridin-7-one] |
| 156 to 161 °C |  | 0.015 µM | 0.861 µM | 69% | 0.7 µM | CCN(CC)CCOc1ccc(Nc2ncc3nc(-c4c(Cl)cccc4Cl)c(=O)n(C)c3n2)cc1 [Compound 4, 6-(2,6Dichlorophenyl)-2-[[4-[2-(diethylamino)ethoxy]phenyl]amino]-8-methyl-8H-pteridin-7-one] |
| 274 to 276 °C | 0.16 µM | 47 µM | > 50 µM |  |  | CCN(CC)C(=O)c1ccc(Nc2ncc3nc(-c4c(Cl)c(OC)nc(OC)c4Cl)c(=O)n(C)c3n2)cc1 [Compound 22, 6-(3,5Dichloro-2,6-dimethoxypyridin-4-yl)-2-[[4-(diethylaminocarbonyl)phenyl]amino]-8-methyl-8H-pteridin-7-one] |
| 230 to 231 °C |  | 0.5 µM | 4.49 µM | 17% |  | CCN(CC)C(=O)c1ccc(Nc2ncc3nc(-c4c(Cl)cncc4Cl)c(=O)n(C)c3n2)cc1 [Compound 13, 6-(3,5-Dichloropyridin-4yl)-2-[[4-(diethylaminocarbonyl)phenyl]-amino]-8-methyl-8H-pteridin-7-one] |
| 275 to 276 °C | 0.23 µM | 20 µM | > 50 µM |  |  | COc1nc(OC)c(Cl)c(-c2nc3cnc(Nc4ccc(N5CCOCC5)cc4)nc3n(C)c2=O)c1Cl [Compound 18, 6-(3,5-Dichloro-2,6-dimethoxypyridin-4-yl)-8-methyl-2-[[4-(morpholin-4-yl)phenyl]amino]-8H-pteridin-7-one] |
| 162 to 165 °C |  | 1.53 µM | > 50 µM | 54% | 7.55 µM | CCN(CC)CCOc1ccc(Nc2ncc3nc(-c4ccccc4)c(=O)n(C)c3n2)cc1 [Compound 3, 2-[[4-[2-(Diethylamino)ethoxy]phenyl]amino]-8-methyl-6-phenyl-8H-pteridin-7-one] |
| 179 to 180.5 °C |  | 0.12 µM | 7.07 µM |  |  | CCN(CC)CCOc1ccc(Nc2ncc3nc(-c4c(Cl)cncc4Cl)c(=O)n(C)c3n2)cc1 [Compound 20, 6-(3,5-Dichloropyridin-4-yl)-8-methyl-2-[[4-[2-(diethylamino)ethoxy]-phenyl]amino]-8H-pteridin-7-one] |
